# Experimental data published in ChEMBL document CHEMBL1156062, “Synthesis, SAR, and X-ray structure of tricyclic compounds as potent FBPase inhibitors” (Bioorg Med Chem Lett, 2009).
# Target: T1, Fructose-1,6-bisphosphatase 1 (Homo sapiens, UniProt P09467)
# T1 sequence (P09467 whole entry): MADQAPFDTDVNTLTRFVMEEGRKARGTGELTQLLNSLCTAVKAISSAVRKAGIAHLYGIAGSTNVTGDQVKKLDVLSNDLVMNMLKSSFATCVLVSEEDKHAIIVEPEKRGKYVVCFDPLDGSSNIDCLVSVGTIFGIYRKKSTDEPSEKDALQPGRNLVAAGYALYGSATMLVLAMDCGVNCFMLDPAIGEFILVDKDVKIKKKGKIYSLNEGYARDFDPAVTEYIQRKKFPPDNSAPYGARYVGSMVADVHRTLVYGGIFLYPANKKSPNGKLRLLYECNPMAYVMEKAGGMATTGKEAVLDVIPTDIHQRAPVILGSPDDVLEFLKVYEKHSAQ
# Test: Inhibition of human liver FBPase
row,IC50 [µM],Compound
1,18.7,Nc1nc2c(s1)Cc1ccc(P(=O)(O)O)cc1-2
2,112,Nc1nc2c(s1)CCc1cc(OP(=O)(O)O)ccc1-2
3,0.169,Nc1nc2c(s1)CCCc1ccc(P(=O)(O)O)cc1-2
4,146,Nc1nc2c(s1)Cc1cc(OP(=O)(O)O)ccc1-2
5,0.84,Nc1nc2c(s1)CCc1ccc(CP(=O)(O)O)cc1-2
6,112,Nc1nc2c(s1)Cc1cc(OCP(=O)(O)O)ccc1-2
7,21.5,Nc1nc2c(s1)CCc1cccc(OCP(=O)(O)O)c1-2
8,354,Nc1nc2c(s1)CCc1cc(P(=O)(O)O)ccc1-2
9,9.32,Nc1nc2c(s1)CCc1ccc(P(=O)(O)O)cc1-2
10,16.4,Nc1nc2c(s1)CCc1cc(OCP(=O)(O)O)ccc1-2
11,91.9,Nc1nc2c(s1)Cc1cc(P(=O)(O)O)ccc1-2
12,0.047,Nc1nc2c(s1)CCc1ccc(C(F)(F)P(=O)(O)O)cc1-2
13,307,Nc1nc2c(s1)Cc1ccc(OP(=O)(O)O)cc1-2
14,0.022,Nc1nc2c(s1)CCCc1ccc(OP(=O)(O)O)cc1-2
15,28.4,Nc1nc2c(s1)Cc1cccc(P(=O)(O)O)c1-2
16,335,Nc1nc2c(s1)CCc1cccc(OP(=O)(O)O)c1-2
17,19.1,Nc1nc2c(s1)CCc1ccc(OCP(=O)(O)O)cc1-2
18,112,Nc1nc2c(s1)Cc1ccc(OCP(=O)(O)O)cc1-2
19,354,Nc1nc2c(s1)CCc1cccc(P(=O)(O)O)c1-2
20,0.07,Nc1nc2c(s1)Cc1cccc(OP(=O)(O)O)c1-2
21,41.7,Nc1nc2c(s1)CCCc1ccc(OCP(=O)(O)O)cc1-2
